Assays:
[1] = Metabolic stability in dog hepatocytes; assay type: in vitro ADME; settings: pooled cryopreserved hepatocytes; beagle dog hepatocytes, 2 μM compound; read-out: Dog Hepatocyte Stability (t1/2)
Procedure, shortened: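 Pooled cryopreserved beagle hepatocytes at 500,000 cells/mL in Krebs-Henseleit buffer with 2 μM compound, 37 °C, 5% CO2, sampled out to 180 min. Acetonitrile-quenched samples analysed by LC-MS/MS; percent remaining from peak area versus time zero.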

[2] = system: Trypsin; test: Dose response assay for protease inhibitors: trypsin; assay type: biochemical; settings: selectivity, trypsin over Factor XIa
Procedure, shortened: (§1)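 Glp-Pro-Arg-AMC substrate (thrombin, trypsin) or Pro-Phe-Arg-AMC/Boc-Leu-Gly-Arg-AMC (Factor Xa), diluted to 100 μM, in 20 mM Hepes pH 7.4, 150 mM NaCl, 0.02% Tween 20; enzyme diluted to 0.5 nM before addition. Two-fold serial compound dilutions; kinetic reads at 30° C. Data yield IC50 and Kon.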

[3] = target: Thrombin (Homo sapiens (Human), UniProt P00734); test: Dose response assay for protease inhibitors: thrombin; assay type: biochemical; settings: selectivity, thrombin over Factor XIa
Procedure, shortened: as §1

[4] = Plasma protein binding by equilibrium dialysis; assay type: in vitro ADME; settings: both sexes, pH 7.4, pooled human plasma, 4 hours at 37° C., read-out: PPB (%)
Procedure, shortened: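 Pooled mixed-gender human plasma spiked with compound at 10 μM was dialysed against PBS pH 7.4 for 4 h at 37°C. Both compartments were quantified by HPLC-MS/MS, and % bound was calculated from plasma vs buffer peak areas.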

[5] = target: Factor Xa (Homo sapiens (Human), UniProt P00742); test: Dose response assay for protease inhibitors: Factor Xa; assay type: biochemical; settings: selectivity, Factor Xa over Factor XIa
Procedure, shortened: as §1

[6] = Determination of bioavailability in a dog; assay type: in vivo; settings: plasma, male beagle dogs, IV bolus 1 mg/kg vs oral gavage 5 mg/kg, AUC comparison
Protocol: The following protocol was used to estimate the bioavailability of test compounds in a dog. Test compounds were formulated in vehicles compatible with intravenous and oral dosing. Test compounds were administered to male beagle dogs via an intravenous bolus at 1 mg/kg (1 mg/mL at a dose volume of 1 mL/kg) or via oral gavage at 5 mg/kg (1 mg/mL at a dose volume of 5 mL/kg). Blood samples were collected via the contralateral (to intravenous bolus) jugular vein or via other accessible vein, at various timepoints following administration out to 24 hours post dose. Plasma samples (EDTA) were obtained by centrifugation (2200×g for 10 minutes at 5° C.) and stored frozen ([…]) until analyzed for parent compound via LC/MS/MS. Pharmacokinetic parameters were estimated from the plasma concentration time data by standard non-compartmental methods utilizing standard analysis software. By comparing the area under the curve (AUC) for IV and PO administration estimates of oral bioavailability were determined.

Chain of Factor Xa (P00742 235-488): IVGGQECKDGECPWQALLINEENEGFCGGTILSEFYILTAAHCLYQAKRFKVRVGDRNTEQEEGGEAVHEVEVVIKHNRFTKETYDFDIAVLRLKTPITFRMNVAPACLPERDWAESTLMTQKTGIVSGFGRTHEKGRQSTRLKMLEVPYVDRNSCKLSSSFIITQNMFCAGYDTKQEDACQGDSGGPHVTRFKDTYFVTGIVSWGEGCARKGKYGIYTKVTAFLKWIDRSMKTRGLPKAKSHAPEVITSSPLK
Chain of Factor Xa (P00742 41-179 partner): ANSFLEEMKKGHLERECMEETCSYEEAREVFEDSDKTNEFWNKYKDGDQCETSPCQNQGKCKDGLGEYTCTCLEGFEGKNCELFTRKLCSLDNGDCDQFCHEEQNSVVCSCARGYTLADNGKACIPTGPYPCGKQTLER

SMILES | half-life at 2 μM [1] | Ratio: Trypsin/FXIa [2] | Ratio: Thrombin/FXIa [3] | fraction unbound at 4 h, 10 μM [4] | Ratio: FXa/FXIa [5] | bioavailability [6]
CC[C@@H](NC(=O)N1C(=O)[C@H](Cc2cc(C)nc(N)c2)[C@H]1C(=O)N(C)c1ccn(C)n1)c1cccc(Cl)c1 [Compound 1-89, (2S,3R)-3-((2-amino-6-methylpyridin-4-yl)methyl)-N2-(1-methyl-1H-pyrazol-3-yl)-N1-((R)-1-(3-chlorophenyl)propyl)-N2-methyl-4-oxoazetidine-1,2-dicarboxamide] | > 4 h | G (“G” indicates 1-100) | H (“H” indicates 101-1000) | 0.1 to 0.5 | I (“I” indicates > 500) | > 30%
CC[C@@H](NC(=O)N1C(=O)[C@H](Cc2ccnc(N)c2)[C@H]1C(=O)N(C)c1ccn(C)n1)c1cccc(Cl)c1 [Compound 1-91, (2S,3R)-3-((2-aminopyridin-4-yl)methyl)-N2-(1-methyl-1H-pyrazol-3-yl)-N1-((R)-1-(3-chlorophenyl)propyl)-N2-methyl-4-oxoazetidine-1,2-dicarboxamide] | 1.02 to 2 h | G (“G” indicates 1-100) | H (“H” indicates 101-1000) | 0.1 to 0.5 | H (“H” indicates 101-1000) | > 30%
CC[C@@H](NC(=O)N1C(=O)[C@H](Cc2ccnc(N)c2)[C@H]1C(=O)N(C)c1ccnn1C)c1ccccc1 [Compound 1-92, (2S,3R)-3-((2-aminopyridin-4-yl)methyl)-N2-(1-methyl 1H-pyrazol-5-yl)-N1-((R)-1-phenylpropyl)-N2-methyl-4-oxoazetidine-1,2-dicarboxamide] | 2.02 to 4 h | G (“G” indicates 1-100) | H (“H” indicates 101-1000) | 0.1 to 0.5 | I (“I” indicates > 500) | > 30%
